Test results reported in the supplement of paper PMC10307832.

Assays:
Assay in all cases: relative viability (nuclei count vs DMSO), 5 days (fraction); higher = more cells survive
[1] = compound: CCN1C(=O)C2=CC(=C(N=C2N(C1=O)C3CC3)N)C(=O)N + CC(C)C[C@H](NC(=O)[C@H](Cc1ccccc1)NC(=O)c1cnccn1)B(O)O [Bortezomib] (partner 0.002 µM)
How it was run: (§1)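 For relative viability, nuclei counts in treated wells were divided by those in vehicle wells. Lung cancer cell lines had been pin-tool dosed in 1536-well plates the day after seeding and cultured for 5 days, then fixed and stained in one step (final 0.05% Triton X-100, 1% formaldehyde, 1 ug/ml Hoechst) and imaged at 4×. Doses were one drug alone or a fixed anchor-drug dose plus five library-drug doses (not always all listed) in √10 steps, and values are duplicate-plate medians.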

[2] = compound: CCN1C(=O)C2=CC(=C(N=C2N(C1=O)C3CC3)N)C(=O)N + CC1(C)CCC(c2ccc(Cl)cc2)=C(CN2CCN(c3ccc(C(=O)NS(=O)(=O)c4ccc(N[C@H](CCN5CCOCC5)CSc5ccccc5)c(S(=O)(=O)C(F)(F)F)c4)cc3)CC2)C1 [Navitoclax] (partner 0.5 µM)
How it was run: as §1

[3] = compound: CCN1C(=O)C2=CC(=C(N=C2N(C1=O)C3CC3)N)C(=O)N + COc1cccc2cc(-c3nc([C@H]4CC[C@H](C(=O)O)CC4)n4ncnc(N)c34)[nH]c12 [OSI-027] (partner 0.5 µM)
How it was run: as §1

[4] = compound: CCN1C(=O)C2=CC(=C(N=C2N(C1=O)C3CC3)N)C(=O)N + CS(=O)(=O)CCNCc1ccc(-c2ccc3ncnc(Nc4ccc(OCc5cccc(F)c5)c(Cl)c4)c3c2)o1 [Lapatinib] (partner 2 µM)
How it was run: as §1

[5] = compound: CCN1C(=O)C2=CC(=C(N=C2N(C1=O)C3CC3)N)C(=O)N + CS(=O)(=O)N1CCN(Cc2cc3nc(-c4cccc5[nH]ncc45)nc(N4CCOCC4)c3s2)CC1 [Pictilisib] (partner 1 µM)
How it was run: as §1

Row | Cell Line | relative viability ([1]; first compound 0.253 µM) | relative viability ([1]; first compound 0.8 µM) | relative viability ([1]; first compound 2.53 µM) | relative viability ([1]; first compound 8 µM) | relative viability ([2]; first compound 0.253 µM) | relative viability ([2]; first compound 0.8 µM) | relative viability ([2]; first compound 2.53 µM) | relative viability ([2]; first compound 8 µM) | relative viability ([3]; first compound 0.253 µM) | relative viability ([3]; first compound 0.8 µM) | relative viability ([3]; first compound 2.53 µM) | relative viability ([3]; first compound 8 µM) | relative viability ([4]; first compound 0.253 µM) | relative viability ([4]; first compound 0.8 µM) | relative viability ([4]; first compound 2.53 µM) | relative viability ([4]; first compound 8 µM) | relative viability ([5]; first compound 0.253 µM) | relative viability ([5]; first compound 0.8 µM) | relative viability ([5]; first compound 2.53 µM) | relative viability ([5]; first compound 8 µM)
1 | NCI-H2087 | 0.837 | 0.845 | 0.781 | 0.985 | 0.94 | 1.11 | 0.994 | 0.941 | 0.437 | 0.671 | 0.636 | 0.55 | 0.811 | 1.14 | 1.21 | 0.872 | 0.785 | 0.788 | 0.878 | 0.857
2 | H3255 | 0.866 | 0.565 | 0.934 | 0.706 | 0.625 | 0.509 | 0.617 | 0.559 | 0.57 | 0.57 | 0.577 | 0.994 | 0.246 | 0.216 | 0.192 | 0.258 | 0.509 | 0.47 | 0.504 | 0.513
3 | NCI-H23 | 1.02 | 1.03 | 1.08 | 0.956 | 0.772 | 0.924 | 0.659 | 0.769 | 0.494 | 0.64 | 0.587 | 0.583 | 1.21 | 1.08 | 1.06 | 1.11 | 0.453 | 0.447 | 0.473 | 0.487
4 | HCC-827 | 1.06 | 1.11 | 1.06 | 0.972 | 1 | 1.01 | 0.98 | 0.954 | 0.778 | 0.771 | 0.793 | 0.794 | 0.183 | 0.219 | 0.17 | 0.206 | 0.954 | 1.08 | 1.16 | 1.03
5 | HCC-78 | 0.293 | 0.479 | 0.463 | 0.516 | 0.436 | 0.788 | 0.691 | 0.94 | 0.434 | – | 0.354 | 0.387 | 0.581 | 0.626 | 0.937 | 0.719 | 0.223 | 0.173 | 0.201 | 0.205
